Measurements as given in patent US12076307B2, “Compositions for prevention or treatment of acute radiation syndrome and other radiation exposure” (priority 2017, dated 2024).
Read-outs that look alike come from different tables or passages of the source.

Assays:
EGFR = test: Western blot of EGFR activity, comparison to G-CSF; format: cell-based; conditions: cells stimulated with neutrophil or G-CSF-activated neutrophils
Method: The effects of EC-18 in comparison to G-CSF to cells after γ-radiation were measured by western blot (FIG. 25). The experiment can i) show correlation between EGFR activity and the abnormal growth and metastasis induction of breast cancer cells in the TAN environment and ii) confirm inhibitory effect mechanism by PLAG treatment in this condition. In fact, it was confirmed that EGFR activity was increased in the groups stimulated with neutrophil or G-CSF-activated neutrophils, however, the activity of EGFR (Phosphorylation of EGFR) was decreased in the group treated with PLAG. FIG. 26 can show effects of PLAG in comparison to G-CSF.

Balb/c mice, TBI = test: Estimation of dose reduction factor (DRF); format: in vivo, mouse
Method: Analysis of several TBI, 24-hr delayed administration of EC-18 at 250 mg/kg in Balb/c mice yields an estimate of the dose reduction factor (DRF) of EC-18.

[1] = Plasma and lymphatic concentrations of EC-18 in beagle dogs after single administration; format: in vivo, dog; conditions: for Tmax / AUC(0-t) / half-life / Cmax: male, beagle, dog; for Tmax: po
Method: A single dose of EC-18 (1000, 2000, 4000 mg/kg by mouth or 100 mg/kg IV) was administered to male beagle dogs in fed condition and the concentration of EC-18 in plasma and lymph was measured using UHPLC-MS/MS.

[2] = Whole-body autoradiography of rats after single oral [14C]EC-18; format: in vivo, rat; conditions: 200 mg/kg oral
Method: Male albino rats in fasted conditions were administered a single dose of [^14C]EC-18 (oral dose of 200 mg/kg, vehicle: olive oil). The distribution and levels of radioactivity in the body were observed by whole-body autoradiography performed at 0.25, 1, 8, and 24 hrs after [^14C]EC-18 administration.

CYP2D6 = CYP2D6 (Homo sapiens, UniProt P10635); test: CYP enzyme inhibition in human liver microsomes, CYP2D6
Sequence of CYP2D6 (P10635 whole entry): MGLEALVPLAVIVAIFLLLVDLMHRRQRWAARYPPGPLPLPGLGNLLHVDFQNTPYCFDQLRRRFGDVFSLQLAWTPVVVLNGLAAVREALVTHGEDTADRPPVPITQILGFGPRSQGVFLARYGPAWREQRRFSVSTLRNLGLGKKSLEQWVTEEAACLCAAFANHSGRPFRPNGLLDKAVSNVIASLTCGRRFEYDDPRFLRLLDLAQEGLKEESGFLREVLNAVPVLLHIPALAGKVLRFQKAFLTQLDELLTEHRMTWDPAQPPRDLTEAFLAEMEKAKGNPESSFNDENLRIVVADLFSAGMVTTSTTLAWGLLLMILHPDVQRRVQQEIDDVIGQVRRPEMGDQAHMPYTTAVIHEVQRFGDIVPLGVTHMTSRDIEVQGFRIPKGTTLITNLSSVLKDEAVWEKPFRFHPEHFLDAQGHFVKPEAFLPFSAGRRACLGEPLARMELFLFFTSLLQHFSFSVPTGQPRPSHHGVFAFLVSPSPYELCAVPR
Excerpt: CYP1A2, CYP2C9, CYP2C19, CYP2D6, and CYP3A4 are the CYP subfamily, which plays a critical role in the metabolism of most drugs.

OATP1B1 = target: T1, OATP1B1 (Homo sapiens, UniProt Q9Y6L6); test: Drug transporter inhibition, OATP1B1; format: in vitro ADME; conditions: 100 nM [3H] estrone-3-sulfate; transfected HEK-293 cells
T1 construct: expressed in transfected cells; host or cells: HEK-293
T1 sequence (Q9Y6L6 whole entry, species assumed): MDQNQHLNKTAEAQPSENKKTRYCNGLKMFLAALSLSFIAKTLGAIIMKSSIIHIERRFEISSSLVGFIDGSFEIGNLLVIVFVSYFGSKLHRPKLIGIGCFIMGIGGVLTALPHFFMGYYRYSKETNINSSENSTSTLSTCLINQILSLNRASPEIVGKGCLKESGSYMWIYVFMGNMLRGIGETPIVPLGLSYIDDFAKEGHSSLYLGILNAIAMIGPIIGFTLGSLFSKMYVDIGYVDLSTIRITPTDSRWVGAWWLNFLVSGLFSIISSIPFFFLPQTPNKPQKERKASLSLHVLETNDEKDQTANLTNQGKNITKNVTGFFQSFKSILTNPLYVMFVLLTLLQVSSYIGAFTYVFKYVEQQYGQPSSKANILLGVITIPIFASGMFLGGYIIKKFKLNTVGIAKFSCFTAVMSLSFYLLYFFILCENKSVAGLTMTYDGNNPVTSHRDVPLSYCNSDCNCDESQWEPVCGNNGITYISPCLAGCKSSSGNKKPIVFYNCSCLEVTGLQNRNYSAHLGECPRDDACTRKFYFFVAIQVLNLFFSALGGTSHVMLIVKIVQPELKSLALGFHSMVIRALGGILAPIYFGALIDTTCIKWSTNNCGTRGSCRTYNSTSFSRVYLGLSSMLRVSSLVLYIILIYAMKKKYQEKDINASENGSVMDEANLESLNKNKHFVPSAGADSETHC
Method: (§1) This study examined the potential of EC-18 to interact with the transporter proteins that have been known to be involved in the absorption of commercially available drugs. EC-18 was pre-incubated with HEK-293 cells and LLC-PK1 cells that were transfected with the genes of most drug transporters as follows: OATP1B1, OATP1B3, OAT1, OAT3 and OCT2, and BCRP and P-gp, respectively.

BCRP = target: T2, BCRP (Homo sapiens, UniProt Q9UNQ0); test: Drug transporter inhibition, BCRP; format: in vitro ADME; conditions: 100 nM [3H] estrone-3-sulfate; transfected LLC-PK1 cells
T2 construct: expressed in transfected cells; host or cells: LLC-PK1
T2 sequence (Q9UNQ0 whole entry, species assumed): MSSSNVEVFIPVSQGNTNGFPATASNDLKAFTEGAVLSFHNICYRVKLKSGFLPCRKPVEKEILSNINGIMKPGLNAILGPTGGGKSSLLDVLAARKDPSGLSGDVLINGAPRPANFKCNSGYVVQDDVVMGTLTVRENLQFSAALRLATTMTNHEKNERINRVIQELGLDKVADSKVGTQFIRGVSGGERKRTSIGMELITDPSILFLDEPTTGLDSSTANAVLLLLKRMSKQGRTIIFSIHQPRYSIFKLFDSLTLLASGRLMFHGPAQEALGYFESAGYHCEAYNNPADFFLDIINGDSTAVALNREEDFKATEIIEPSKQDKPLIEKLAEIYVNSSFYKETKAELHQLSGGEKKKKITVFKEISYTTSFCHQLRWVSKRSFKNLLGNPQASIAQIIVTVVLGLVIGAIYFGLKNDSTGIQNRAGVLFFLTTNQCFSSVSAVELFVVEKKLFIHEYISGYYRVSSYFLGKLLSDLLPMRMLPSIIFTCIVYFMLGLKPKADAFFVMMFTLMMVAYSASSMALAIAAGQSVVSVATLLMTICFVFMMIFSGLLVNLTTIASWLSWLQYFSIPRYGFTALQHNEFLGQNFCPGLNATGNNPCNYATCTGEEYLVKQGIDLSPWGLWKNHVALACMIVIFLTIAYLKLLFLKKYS
Method: as §1

[3] = Repeated dose toxicity, Beagle dog; format: in vivo; conditions: Beagle, dog, in vivo, Oral
Excerpt: (§2) Various toxicology studies have been performed. All studies were GLP-compliant unless otherwise noted.

Beagle dog = test: Repeated dose toxicity, Beagle dog; format: in vivo; conditions: Oral
Excerpt: as §2

[4] = system: S. typhi-murium (TA98, TA100, TA1535, TA1537), E. coli (WP2uvrA(pKM101)); format: cell-based; conditions: in vitro; 48 hr; 312.5-5000 μg/plate
Excerpt: as §2

For CCCCC/C=C\C/C=C\CCCCCCCC(=O)OC(COC(C)=O)COC(=O)CCCCCCCCCCCCCCC (stereo not drawn) [EC-18, 1-palmitoyl-2-linoleoyl-3-acetylglycerol], the “activity of EGFR (Phosphorylation of EGFR)” value (EGFR) was “decreased”, the “DRF at LD30/30” value (Balb/c mice, TBI; 250 mg/kg) was 1.45 and the “DRF at LD70/30” value (Balb/c mice, TBI; 250 mg/kg) was 1.18. For the same compound, the “DRF at LD95/30” value (Balb/c mice, TBI; 250 mg/kg) was 1.05, the “LD Estimate LD30/30, Presence of EC-18” value (Balb/c mice, TBI; 250 mg/kg) was 5.26 Gy and the “LD Estimate LD50/30, Presence of EC-18” value (Balb/c mice, TBI; 250 mg/kg) was 5.50 Gy. For the same compound, the “LD Estimate LD70/30, Presence of EC-18” value (Balb/c mice, TBI; 250 mg/kg) was 5.76 Gy, the “LD Estimate LD95/30, Presence of EC-18” value (Balb/c mice, TBI; 250 mg/kg) was 6.09 Gy and the “Lethality, Presence of EC-18” value (Balb/c mice, TBI; 6.11 Gy, 250 mg/kg 24-hr delayed) was 6/40 (15%). The “Lethality, Presence of EC-18” value (Balb/c mice, TBI; 6.5 Gy, 250 mg/kg 24-hr delayed) was 8/20 (40%), the “Lethality, Presence of EC-18” value (Balb/c mice, TBI; 7 Gy, 250 mg/kg) was 10/10 (100%) and the “Lethality, Presence of EC-18” value (Balb/c mice, TBI; 8 Gy, 250 mg/kg) was 10/10 (100%). For the same compound, the “Lethality, Presence of EC-18” value (Balb/c mice, TBI; 10 Gy, 250 mg/kg) was 4/4 (100%), the F ([1]; 1000 mg/kg po, Plasma) was 7.8% and the F ([1]; 2000 mg/kg po, Plasma) was 6.3%. The F ([1]; 4000 mg/kg po, Plasma) was 23.6%, the Tmax ([1]; lymph, 1000 mg/kg, 1000 mg/kg po, Lymph, read-out: Tmax) was 3.3 ± 0.9 h and the Tmax ([1]; lymph, 1000 mg/kg, 1000 mg/kg po, lymph, read-out: median Tmax) was 4 h. For the same compound, the Tmax ([1]; lymph, 2000 mg/kg, 2000 mg/kg po, Lymph, read-out: Tmax) was 3.3 ± 0.9 h, the Tmax ([1]; lymph, 2000 mg/kg, 2000 mg/kg po, lymph, read-out: median Tmax) was 4 h and the Tmax ([1]; lymph, 4000 mg/kg, 4000 mg/kg po, Lymph, read-out: Tmax) was 3.3 ± 1.9 h. It also gave a Tmax ([1]; lymph, 4000 mg/kg, 4000 mg/kg po, lymph, read-out: median Tmax) of 2 h, a Tmax ([1]; plasma, 1000 mg/kg, 1000 mg/kg po, Plasma, read-out: Tmax) of 1.3 h and a Tmax ([1]; plasma, 2000 mg/kg, 2000 mg/kg po, Plasma, read-out: Tmax) of 1.3 h. For the same compound, the Tmax ([1]; plasma, 4000 mg/kg, 4000 mg/kg po, Plasma, read-out: Tmax) was 6.7 h, the AUC(0-t) ([1]; 100 mg/kg IV, Plasma) was 7540 ± 1860 ng·h/mL and the half-life ([1]; 100 mg/kg IV, Plasma) was 13.9 ± 2.3 h. The AUC(0-t) ([1]; 1000 mg/kg po, Lymph) was 118000 ± 16700 ng·h/mL, the Cmax ([1]; 1000 mg/kg po, Lymph) was 35100 ± 5160 ng/mL and the AUC(0-t) ([1]; 1000 mg/kg po, Plasma) was 5800 ± 2810 ng·h/mL. It also gave a Cmax ([1]; 1000 mg/kg po, Plasma) of 1750 ± 710 ng/mL, an AUC(0-t) ([1]; 2000 mg/kg po, Lymph) of 389000 ± 125000 ng·h/mL and a Cmax ([1]; 2000 mg/kg po, Lymph) of 40100 ± 8620 ng/mL. It also gave an AUC(0-t) ([1]; 2000 mg/kg po, Plasma) of 9490 ± 3850 ng·h/mL, a Cmax ([1]; 2000 mg/kg po, Plasma) of 2110 ± 750 ng/mL and an AUC(0-t) ([1]; 4000 mg/kg po, Lymph) of 431000 ± 81300 ng·h/mL. The Cmax ([1]; 4000 mg/kg po, Lymph) was 46600 ± 1730 ng/mL, the half-life ([1]; 4000 mg/kg po, Lymph) was 3.3 ± 0.2 h and the AUC(0-t) ([1]; 4000 mg/kg po, Plasma) was 71100 ± 31700 ng·h/mL. For the same compound, the Cmax ([1]; 4000 mg/kg po, Plasma) was 6760 ± 3330 ng/mL, the time to elimination [2] was no more than 24 h and the IC50 (CYP2D6) was 67.9 µM. The IC50 (OATP1B1) was greater than 32 µM, the IC50 (BCRP) was greater than 32 µM and the NOAEL at 2 weeks ([3]; 2 weeks) was greater than 2000 mg/kg/day. For the same compound, the NOAEL at 4 weeks ([3]; 4 weeks (2-week recovery)) was greater than 2000 mg/kg/day, the NOAEL at 9 months ([3]; 9 months (4-week recovery)) was 2000 mg/kg/day and the NOAEL at 13 weeks ([3]; 13 weeks (4-week recovery)) was greater than 2000 mg/kg/day. The mortality (Beagle dog; 2 weeks, 0, 500, 1000, 2000 mg/kg) was “No dead animals”, the findings (Beagle dog; 2 weeks, males and females in 1000 and 2000 mg/kg dose groups) was “Grayish stool observed” and the mortality (Beagle dog; 4 weeks (2-week recovery)) was “No dead animals”. For the same compound, the findings (Beagle dog; 4 weeks (2-week recovery), drug administration groups) was “Grayish stool observed”, the “findings (soft stool and grayish stool; early diarrhea; no toxicological significance)” value (Beagle dog; 9 months (4-week recovery)) was “Dose-dependent soft” and the mortality (Beagle dog; 9 months (4-week recovery)) was “No dead animals”. The “findings (grayish stool observed)” value (Beagle dog; 13 weeks (4-week recovery)) was “Dose-dependent grayish”, the mortality (Beagle dog; 13 weeks (4-week recovery)) was “No dead animals” and the “induction of reverse mutation” value [4] was “No potential of EC-18”.
